Reference: patent publication US10208081B2, “Bile acid derivatives as FXR/TGR5 agonists and methods of use thereof” (Enanta Pharmaceuticals, Inc., priority 2014, dated 2019)

Molecular target: human FXR (NR1H4) (Homo sapiens (Human), UniProt Q96RI1)
Assay: Human FXR (NR1H4) Assay (Gal4 promoter driven luciferase reporter, Indigo Bioscience kit IB00601)
Format: cell-based
Details: for Efficacy (%): efficacy normalized to CDCA set as 100%; for EC50: potency ranges
Description: Assays Human FXR (NR1H4) Assay
Determination of a ligand mediated Gal4 promoter driven transactivation quantify ligand binding mediated activation of FXR. FXR Reporter Assay kit purchased from Indigo Bioscience (Catalogue number: IB00601) to determine the potency and efficacy of compound developed by Enanta that can induce FXR activation. The principle application of this reporter assay system is to quantify functional activity of human FXR. The assay utilizes non-human mammalian cells, CHO (Chinese hamster ovary) cells engineered to express human NR1H4 protein (referred to as FXR). Reporter cells also incorporate the cDNA encoding beetle luciferase which catalyzes the substrates and yields photon emission. Luminescence intensity of the reaction is quantified using a plate-reading luminometer, Envision. Reporter Cells include the luciferase reporter gene functionally linked to an FXR responsive promoter. Thus, quantifying changes in luciferase expression in the treated reporter cells provides a sensitive surrogate measure of the changes in FXR activity. […] The assay is according to the manufacturer's instructions. In brief, the assay was performed in white, 96 well plates using final volume of 100 ul containing cells with different doses of compounds. Retrieve Reporter Cells from −80° C. storage. Perform a rapid thaw of the frozen cells by transferring a 10 ml volume of 37° C. cell recovery medium into the tube of frozen cells. Recap the tube of Reporter Cells and immediately place it in a 37° C. water bath for 5-10 minutes. Retrieve the tube of Reporter Cell Suspension from the water bath. Sanitize the outside surface of the tube with a 70% alcohol swab, and then transfer it into the cell culture hood. Dispense 90 μl of cell suspension into each well of the 96-well Assay Plate. Transfer the plate into 37° C. incubator, allowing the cells adherent to the bottom of the well. Dilute compounds in Dilution Plate (DP), and administrate to cells at Assay Plate (AP). DMSO content of the samples was kept at 0.2%. Cells were incubated for additional 22 hours before luciferase activities were measured. Thirty minutes before intending to quantify FXR activity, remove Detection Substrate and Detection Buffer from the refrigerator and place them in a low-light area so that they may equilibrate to room temperature. Remove the plate's lid and discard all media contents by ejecting it into an appropriate waste container. Gently tap the inverted plate onto a clean absorbent paper towel to remove residual droplets. Cells will remain tightly adhered to well bottoms. Add 100 μl of luciferase detection reagent to each well of the assay plate. Allow the assay plate to rest at room temperature for at least 5 minutes following the addition of LDR. Set the instrument (Envision) to perform a single 5 second “plate shake” prior to reading the first assay well. Read time may be 0.5 second (500 mSec) per well.

human FXR (NR1H4), sequence (Q96RI1 whole entry, the tested form may be a part): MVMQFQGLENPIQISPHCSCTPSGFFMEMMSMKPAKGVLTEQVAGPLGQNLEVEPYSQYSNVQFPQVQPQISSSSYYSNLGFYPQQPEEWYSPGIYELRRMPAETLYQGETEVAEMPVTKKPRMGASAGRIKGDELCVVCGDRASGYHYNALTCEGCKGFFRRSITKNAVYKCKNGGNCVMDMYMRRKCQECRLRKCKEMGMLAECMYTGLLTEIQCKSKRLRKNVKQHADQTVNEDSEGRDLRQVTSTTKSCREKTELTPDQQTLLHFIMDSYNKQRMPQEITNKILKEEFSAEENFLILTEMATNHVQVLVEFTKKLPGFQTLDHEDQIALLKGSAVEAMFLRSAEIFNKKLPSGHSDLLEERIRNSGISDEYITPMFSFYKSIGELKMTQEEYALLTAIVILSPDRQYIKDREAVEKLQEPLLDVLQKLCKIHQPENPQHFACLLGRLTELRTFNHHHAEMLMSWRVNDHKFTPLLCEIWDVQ

Structure (SMILES)	Efficacy (%)	EC50 [nM]
CC[C@H]1[C@@H](O)[C@@H]2[C@H](CC[C@]3(C)[C@@H]([C@H](C)CCNC(=O)NS(=O)(=O)c4cccc(C)c4)CC[C@@H]23)[C@@]2(C)CC[C@@H](O)C[C@@H]12 [Example 13]	245	< 100
CC[C@H]1[C@@H](O)[C@@H]2[C@H](CC[C@]3(C)[C@@H]([C@H](C)CNS(=O)(=O)c4cccc(N5CCCCC5)c4)CC[C@@H]23)[C@@]2(C)CC[C@@H](O)C[C@@H]12 [Example 142]	7	
CC[C@H]1[C@@H](O)[C@@H]2[C@H](CC[C@]3(C)[C@@H]([C@H](C)CNC(=O)NS(=O)(=O)C4CC4)CC[C@@H]23)[C@@]2(C)CC[C@@H](O)C[C@@H]12 [Example 30]	194	1000 to 10000
CC[C@H]1[C@@H](O)[C@@H]2[C@H](CC[C@]3(C)[C@@H]([C@H](C)CCCCNS(=O)(=O)C(C)(C)C)CC[C@@H]23)[C@@]2(C)CC[C@@H](O)C[C@@H]12 [Example 136]	159	1000 to 10000
CC[C@H]1[C@@H](O)[C@@H]2[C@H](CC[C@]3(C)[C@@H]([C@H](C)CCNC(=O)NS(=O)(=O)c4ccc5ccccc5c4)CC[C@@H]23)[C@@]2(C)CC[C@@H](O)C[C@@H]12 [Example 1]	337	< 100
CC[C@H]1[C@@H](O)[C@@H]2[C@H](CC[C@]3(C)[C@@H]([C@H](C)CCNC(=O)NS(=O)(=O)c4ccccc4)CC[C@@H]23)[C@@]2(C)CC[C@@H](O)C[C@@H]12 [Example 4]	342	< 100
CC[C@H]1[C@@H](O)[C@@H]2[C@H](CC[C@]3(C)[C@@H]([C@H](C)CCNC(=O)NS(=O)(=O)c4ccc(C(C)(C)C)cc4)CC[C@@H]23)[C@@]2(C)CC[C@@H](O)C[C@@H]12 [Example 3]	396	< 100
CC[C@H]1[C@@H](O)[C@@H]2[C@H](CC[C@]3(C)[C@@H]([C@H](C)CCNC(=O)NS(=O)(=O)C4CCCC4)CC[C@@H]23)[C@@]2(C)CC[C@@H](O)C[C@@H]12 [Example 27]	275	< 100
CC[C@H]1[C@@H](O)[C@@H]2[C@H](CC[C@]3(C)[C@@H]([C@H](C)CCNC(=O)NS(=O)(=O)C4CC4)CC[C@@H]23)[C@@]2(C)CC[C@@H](O)C[C@@H]12 [Example 5]	369	100 to 1000
CC[C@H]1[C@@H](O)[C@@H]2[C@H](CC[C@]3(C)[C@@H]([C@H](C)CCNC(=O)NS(=O)(=O)Nc4ccc(C(C)(C)C)cc4)CC[C@@H]23)[C@@]2(C)CC[C@@H](O)C[C@@H]12 [Example 105]	322	100 to 1000
CC[C@H]1[C@@H](O)[C@@H]2[C@H](CC[C@]3(C)[C@@H]([C@H](C)CCNC(=O)NS(=O)(=O)c4ccncc4)CC[C@@H]23)[C@@]2(C)CC[C@@H](O)C[C@@H]12 [Example 49]	236	1000 to 10000
CC[C@H]1[C@@H](O)[C@@H]2[C@H](CC[C@]3(C)[C@@H]([C@H](C)CCNC(=O)NS(=O)(=O)c4cccc(-c5nc(C)cs5)c4)CC[C@@H]23)[C@@]2(C)CC[C@@H](O)C[C@@H]12 [Example 80]	295	100 to 1000
CC[C@H]1[C@@H](O)[C@@H]2[C@H](CC[C@]3(C)[C@@H]([C@H](C)CCNC(=O)NS(=O)(=O)c4ccc(F)cc4)CC[C@@H]23)[C@@]2(C)CC[C@@H](O)C[C@@H]12 [Example 94]	361	< 100
CC[C@H]1[C@@H](O)[C@@H]2[C@H](CC[C@]3(C)[C@@H]([C@H](C)CCNC(=O)NS(=O)(=O)c4ccc5c(c4)OCO5)CC[C@@H]23)[C@@]2(C)CC[C@@H](O)C[C@@H]12 [Example 23]	488	< 100
CC[C@H]1[C@@H](O)[C@@H]2[C@H](CC[C@]3(C)[C@@H]([C@H](C)CNC(=O)NS(=O)(=O)c4cccc(C(C)(C)C)c4)CC[C@@H]23)[C@@]2(C)CC[C@@H](O)C[C@@H]12 [Example 115]	291	100 to 1000
CC[C@H]1[C@@H](O)[C@@H]2[C@H](CC[C@]3(C)[C@@H]([C@H](C)CCNC(=O)NS(=O)(=O)c4ccc5c(c4)CCCC5)CC[C@@H]23)[C@@]2(C)CC[C@@H](O)C[C@@H]12 [Example 57]	297	< 100
CC[C@H]1[C@@H](O)[C@@H]2[C@H](CC[C@]3(C)[C@@H]([C@H](C)CCNC(=O)NS(=O)(=O)C(C)(C)C)CC[C@@H]23)[C@@]2(C)CC[C@@H](O)C[C@@H]12 [Example 28]	323	< 100
CC[C@H]1[C@@H](O)[C@@H]2[C@H](CC[C@]3(C)[C@@H]([C@H](C)CCNC(=O)NS(=O)(=O)N4CCC(C(C)(C)C)CC4)CC[C@@H]23)[C@@]2(C)CC[C@@H](O)C[C@@H]12 [Example 67]	351	< 100
CC[C@H]1[C@@H](O)[C@@H]2[C@H](CC[C@]3(C)[C@@H]([C@H](C)CCNC(=O)NS(=O)(=O)c4ccc(C(C)(C)C)s4)CC[C@@H]23)[C@@]2(C)CC[C@@H](O)C[C@@H]12 [Example 111]	314	< 100
CC[C@H]1[C@@H](O)[C@@H]2[C@H](CC[C@]3(C)[C@@H]([C@H](C)CCNC(=O)NS(=O)(=O)c4cc(F)cc(OC)c4)CC[C@@H]23)[C@@]2(C)CC[C@@H](O)C[C@@H]12 [Example 103]	328	< 100
CC[C@H]1[C@@H](O)[C@@H]2[C@H](CC[C@]3(C)[C@@H]([C@H](C)CCNC(=O)NS(=O)(=O)C4(C)CC4)CC[C@@H]23)[C@@]2(C)CC[C@@H](O)C[C@@H]12 [Example 46]	315	< 100
CC[C@H]1[C@@H](O)[C@@H]2[C@H](CC[C@]3(C)[C@@H]([C@H](C)CCNC(=O)NS(=O)(=O)N4CC(C)C(C)C4)CC[C@@H]23)[C@@]2(C)CC[C@@H](O)C[C@@H]12 (some centres unmarked) [Example 99]	266	< 100
CC[C@H]1[C@@H](O)[C@@H]2[C@H](CC[C@]3(C)C([C@H](C)CCNS(=O)(=O)c4ccccc4)CC[C@@H]23)[C@@]2(C)CC[C@@H](O)C[C@@H]12 (some centres unmarked) [Example 130]	146	1000 to 10000
CC[C@H]1[C@@H](O)[C@@H]2[C@H](CC[C@]3(C)[C@@H]([C@H](C)CCNC(=O)NS(=O)(=O)c4ccc(C(=O)OC)cc4)CC[C@@H]23)[C@@]2(C)CC[C@@H](O)C[C@@H]12 [Example 123]	271	100 to 1000
CC[C@H]1[C@@H](O)[C@@H]2[C@H](CC[C@]3(C)[C@@H]([C@H](C)CCN(C)C(=O)NS(=O)(=O)c4ccc(C(C)(C)C)cc4)CC[C@@H]23)[C@@]2(C)CC[C@@H](O)C[C@@H]12 [Example 26]	378	100 to 1000
CC[C@H]1[C@@H](O)[C@@H]2[C@H](CC[C@]3(C)[C@@H]([C@H](C)CCNC(=O)NS(=O)(=O)N4CCOCC4)CC[C@@H]23)[C@@]2(C)CC[C@@H](O)C[C@@H]12 [Example 37]	254	< 100
CC[C@H]1[C@@H](O)[C@@H]2[C@H](CC[C@]3(C)[C@@H]([C@H](C)CCNC(=O)NS(=O)(=O)c4ccc(-c5ccno5)cc4OC)CC[C@@H]23)[C@@]2(C)CC[C@@H](O)C[C@@H]12 [Example 73]	444	100 to 1000
CC[C@H]1[C@@H](O)[C@@H]2[C@H](CC[C@]3(C)[C@@H]([C@H](C)CCNC(=O)NS(=O)(=O)c4cccc(Cl)c4)CC[C@@H]23)[C@@]2(C)CC[C@@H](O)C[C@@H]12 [Example 24]	421	< 100
CCCCS(=O)(=O)NC(=O)NCC[C@@H](C)[C@H]1CC[C@H]2[C@@H]3[C@H](O)[C@H](CC)[C@@H]4C[C@H](O)CC[C@]4(C)[C@H]3CC[C@]12C [Example 90]	407	< 100
CC[C@H]1[C@@H](O)[C@@H]2[C@H](CC[C@]3(C)[C@@H]([C@H](C)CCNC(=O)NS(=O)(=O)N4C[C@@H](C)O[C@H](C)C4)CC[C@@H]23)[C@@]2(C)CC[C@@H](O)C[C@@H]12 [Example 82]	321	< 100
